# Experiments:
# Type in all cases: biochemical
# VIM-2 = target: T1, VIM-2 (Escherichia coli, UniProt Q5U7L7); assay: VIM-2 inhibition assay (FC5 fluorogenic substrate); conditions: for inhibition at 10 µM / inhibition at 100 µM: mean ± SD (n = 3); for IC50: 10 concentrations in threefold dilution, triplicate, read-out: IC50 against VIM-2
# T1 construct: Li's Laboratory, Sichuan University (collaborator, a gift and not a purchase)
# Procedure: (§1) All the target compounds were freshly prepared in 100 mM DMSO stock solutions. All the MBL and SBL enzymes used in this study were obtained from our collaborator, Li’s Laboratory in Sichuan University. Each compound was initially evaluated for inhibitory activity to MBL and SBL enzymes at 100 and 10 μM, by preincubation with the appropriate amount of enzymes in the assay buffer for 10 min, followed by adding the substrate FC5 to initiate the reactions, and monitoring the fluorescence at λex of 380 nm and λem of 460 nm. The IC50 values for the compounds (with 10 different concentrations in threefold dilution) were further determined. All determinations were tested in triplicate. The IC50 values were obtained from the plot of activity versus inhibitor concentration by using the GraphPad Prism software.
# VIM-5 = VIM-5 inhibition assay (FC5 fluorogenic substrate); conditions: mean ± SD (n = 3)
# Procedure: (§2) Then, we tested all the target compounds against other B1 MBL enzymes, including NDM-1, IMP-1, VIM-1, and VIM-5 (Table 1); all the assay conditions (including enzyme/substrate concentrations) are the same as that previously used. […]. […].
# as §1
# VIM-1 = target: T2, VIM-1 (Pseudomonas aeruginosa, UniProt A0A0F7KYQ8); assay: VIM-1 inhibition assay (FC5 fluorogenic substrate)
# T2 construct: Li's Laboratory, Sichuan University (collaborator, a gift and not a purchase)
# Procedure: as §2, §1
# NDM-1 = target: T3, NDM-1 (Klebsiella pneumoniae, UniProt C7C422); assay: NDM-1 inhibition assay (FC5 fluorogenic substrate); conditions: mean ± SD (n = 3)
# T3 construct: Li's Laboratory, Sichuan University (collaborator, a gift and not a purchase)
# Procedure: as §2, §1
# IMP-1 = target: T4, IMP-1 (Serratia marcescens, UniProt P52699); assay: IMP-1 inhibition assay (FC5 fluorogenic substrate); conditions: for inhibition at 10 µM / inhibition at 100 µM: mean ± SD (n = 3); for IC50: 10 concentrations in threefold dilution, triplicate, read-out: IC50 against IMP-1
# T4 construct: Li's Laboratory, Sichuan University (collaborator, a gift and not a purchase)
# Procedure: as §2, §1
# T3 sequence (C7C422 29-270, looked up, species assumed): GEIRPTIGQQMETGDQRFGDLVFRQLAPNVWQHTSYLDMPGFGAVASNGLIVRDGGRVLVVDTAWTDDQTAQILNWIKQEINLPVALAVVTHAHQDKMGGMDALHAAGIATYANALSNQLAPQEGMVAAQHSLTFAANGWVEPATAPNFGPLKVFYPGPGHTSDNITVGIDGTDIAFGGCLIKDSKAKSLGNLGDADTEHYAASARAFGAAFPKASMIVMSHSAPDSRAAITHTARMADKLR
# T4 sequence (P52699 19-246 limits assumed): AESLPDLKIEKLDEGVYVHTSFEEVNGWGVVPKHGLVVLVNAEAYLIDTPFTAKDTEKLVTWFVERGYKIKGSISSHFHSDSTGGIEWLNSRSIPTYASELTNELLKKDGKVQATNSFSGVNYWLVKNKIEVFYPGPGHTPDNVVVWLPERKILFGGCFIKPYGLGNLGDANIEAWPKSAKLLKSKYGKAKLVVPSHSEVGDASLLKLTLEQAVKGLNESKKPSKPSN
SMILES,inhibition at 10 µM (VIM-2) [%],inhibition at 100 µM (VIM-2) [%],inhibition at 100 µM (VIM-1; mean ± SD (n = 3)) [%],inhibition at 10 µM (NDM-1) [%],inhibition at 100 µM (NDM-1) [%],IC50 (VIM-2) [µM],inhibition at 10 µM (IMP-1) [%],inhibition at 100 µM (IMP-1) [%],"inhibition at 10 µM (VIM-1; @ 10 μM, mean ± SD (n = 3)) [%]",IC50 (IMP-1) [µM],"IC50 (VIM-1; 10 concentrations in threefold dilution, triplicate, read-out: IC50 against VIM-1) [µM]",Inhibition % VIM-5 (VIM-5; @ 100 μM),Inhibition % VIM-5 (VIM-5; @ 10 μM) [%]
"c1ccc(Cc2nnc3n2CCCS3)cc1 [5r, 3-Benzyl-6,7-dihydro-5H-[1,2,4]triazolo[3,4-b][1,3]thiazine]",6,21 ± 3,25 ± 2,9,4 ± 1,–,–,–,–,–,–,8 ± 1/– %,–
"Cc1c(-c2nnc3n2CCCS3)cccc1[N+](=O)[O-] [5p, 3-(2-Methyl-3-nitrophenyl)-6,7-dihydro-5H-[1,2,4]triazolo[3,4-b][1,3]thiazine]",42,71 ± 6,19 ± 2,22,16 ± 2,53.8,-5,10 ± 1,–,–,–,15 ± 1/– %,–
"CC(=O)Nc1ccc(Nc2ccc(-c3nnc4n3CCCS4)cc2)cc1 [5t, N-(4-((4-(6,7-dihydro-5H-[1,2,4]triazolo[3,4-b][1,3]thiazin-3-yl)phenyl)amino)phenyl)acetamide]",40,75 ± 4,14 ± 2,13,23 ± 2,> 100,–,–,–,–,–,31 ± 2/– %,–
"c1ccc(-c2nnc3n2CCCS3)nc1 [5q, 3-(Pyridin-2-yl)-6,7-dihydro-5H-[1,2,4]triazolo[3,4-b][1,3]thiazine]",26,45 ± 1,19 ± 1,20,11 ± 1,–,3,9 ± 1,–,–,–,14 ± 1/– %,–
"c1csc(-c2nnc3n2CCCS3)c1 [10b, 3-(Thiophen-2-yl)-6,7-dihydro-5H-[1,2,4]triazolo[3,4-b][1,3]thiazine]",16,30 ± 3,30 ± 2,8,12 ± 2,–,27,57 ± 6,32,> 100,–,18 ± 2%,21 ± 2
"c1coc(-c2nnc3n2CCCS3)c1 [10a, 3-(Furan-2-yl)-6,7-dihydro-5H-[1,2,4]triazolo[3,4-b][1,3]thiazine]",22,32 ± 4,24 ± 3,16,15 ± 1,–,6,5 ± 1,–,–,–,11 ± 1/– %,–
"O=C(O)c1ccccc1-c1nnc2n1C(=O)CS2 [compound 15, 2-(5-Oxo-5,6-dihydrothiazolo[2,3-c][1,2,4]triazol-3-yl)benzoic acid]",18,21 ± 2,25 ± 2,10,8 ± 1,–,19,13 ± 1,–,–,–,10 ± 2/– %,–
"COc1ccccc1-c1nnc2n1CCCS2 [5d, 3-(2-Methoxyphenyl)-6,7-dihydro-5H-[1,2,4]triazolo[3,4-b][1,3]thiazine]",16,39 ± 3,27 ± 2,6,15 ± 1,–,–,–,–,–,–,7 ± 1/– %,–

# Now from value to compound, other results behind:
inhibition at 10 µM (VIM-2) [%],inhibition at 100 µM (VIM-2) [%],inhibition at 100 µM (VIM-1; mean ± SD (n = 3)) [%],inhibition at 10 µM (NDM-1) [%],inhibition at 100 µM (NDM-1) [%],IC50 (VIM-2) [µM],inhibition at 10 µM (IMP-1) [%],inhibition at 100 µM (IMP-1) [%],"inhibition at 10 µM (VIM-1; @ 10 μM, mean ± SD (n = 3)) [%]",IC50 (IMP-1) [µM],"IC50 (VIM-1; 10 concentrations in threefold dilution, triplicate, read-out: IC50 against VIM-1) [µM]",SMILES,Inhibition % VIM-5 (VIM-5; @ 100 μM),Inhibition % VIM-5 (VIM-5; @ 10 μM) [%]
58,84 ± 6,28 ± 2,17,14 ± 1,47.2,5,7 ± 1,–,–,–,"Clc1ccc(-c2nnc3n2CCCS3)cc1 [5k, 3-(4-Chlorophenyl)-6,7-dihydro-5H-[1,2,4]triazolo[3,4-b][1,3]thiazine]",12 ± 1/– %,–
26,43 ± 5,19 ± 2,17,8 ± 1,–,16,15 ± 1,–,–,–,"Brc1ccccc1-c1nnc2n1CCCS2 [5c, 3-(2-Bromophenyl)-6,7-dihydro-5H-[1,2,4]triazolo[3,4-b][1,3]thiazine]",13 ± 2/– %,–
35,52 ± 4,29 ± 3,9,26 ± 1,> 100,11,12 ± 1,–,–,–,"FC(F)(F)c1cccc(-c2nnc3n2CCCS3)c1 [5i, 3-(3-(Trifluoromethyl)phenyl)-6,7-dihydro-5H-[1,2,4]triazolo[3,4-b][1,3]thiazine]",21 ± 2/– %,–
22,23 ± 4,27 ± 2,9,11 ± 1,–,15,63 ± 1,–,> 100,–,"CC(C)(C)c1ccc(-c2nnc3n2CCCS3)cc1 [5o, 3-(4-(Tert-butyl)phenyl)-6,7-dihydro-5H-[1,2,4]triazolo[3,4-b][1,3]thiazine]",15 ± 1/– %,–
35,57 ± 5,25 ± 3,21,26 ± 2,> 100,5,30 ± 3,–,–,–,"Oc1ccccc1-c1nnc2n1CCCS2 [compound 6, 2-(6,7-Dihydro-5H-[1,2,4]triazolo[3,4-b][1,3]thiazin-3-yl)phenol]",10 ± 2/– %,–
43,82 ± 4,61 ± 3,3,8 ± 1,53.2,–,–,–,–,> 100,"FC(F)(F)c1ccc(-c2nnc3n2CCCS3)cc1 [5n, 3-(4-(Trifluoromethyl)phenyl)-6,7-dihydro-5H-[1,2,4]triazolo[3,4-b][1,3]thiazine]",−10 ± 2/– %,–
44,78 ± 5,34 ± 1,4,1 ± 1,> 100,–,–,–,–,–,"Ic1ccc(-c2nnc3n2CCCS3)cc1 [5m, 3-(4-Iodophenyl)-6,7-dihydro-5H-[1,2,4]triazolo[3,4-b][1,3]thiazine]",2 ± 1/– %,–
17,~50,29 ± 2,3,29 ± 1,~179,–,–,–,–,–,"c1ccc(-c2nnc3n2CCCS3)cc1 [5a, 3-Phenyl-6,7-dihydro-5H-[1,2,4]triazolo[3,4-b][1,3]thiazine]",1 ± 1/– %,–
16,42 ± 2,32 ± 1,22,17 ± 1,–,–,–,–,–,–,"Clc1cccc(-c2nnc3n2CCCS3)c1 [5f, 3-(3-Chlorophenyl)-6,7-dihydro-5H-[1,2,4]triazolo[3,4-b][1,3]thiazine]",−9 ± 2/– %,–
7,33 ± 2,27 ± 3,10,9 ± 1,–,–,–,–,–,–,"Ic1cccc(-c2nnc3n2CCCS3)c1 [5h, 3-(3-Iodophenyl)-6,7-dihydro-5H-[1,2,4]triazolo[3,4-b][1,3]thiazine]",−5 ± 2/– %,–

# — PMC6982996, “Discovery of [1,2,4]Triazole Derivatives as New Metallo-β-Lactamase Inhibitors” (Molecules, 2019)
